Assay results taken from US5422342A, “2,3-disubstituted isoxazolidines, agents containing them and their use” (Hoechst Aktiengesellschaft, priority 1986, dated 1995).
Several values for one entry are separate records, joined by “and”; a condition that tells them apart may be missing. Identical values can stand only once.

Key:
[1] = test system: calvarial culture; assay: inhibitory action in calvarial culture (hydroxyproline/proline quotient); assay type: cell-based; conditions: concentration giving 50% decrease in the hydroxyproline/proline quotient on feeding with 14C-proline
Excerpt: The inhibitory action can also be determined in cell or tissue culture. It is possible to use for this purpose fibroblasts or other collagen-producing cells, or calvariae or other collagen-producing organs. Table 2 is a compilation of the inhibitory action of some substances according to the invention in calvarial culture. The concentration which results in a 50% decrease in the hydroxyproline/proline quotient on feeding with ^14 C-proline is stated.

[2] = target: prolyl hydroxylase (Homo sapiens, UniProt P13674); assay: prolyl hydroxylase enzyme assay with preincubation (suicide inhibition); assay type: biochemical; conditions: concentration which inactivates 50% of the enzyme after one hour; preincubation with iron(II) ions, α-ketoglutarate and ascorbate
Sequence of prolyl hydroxylase (P13674 18-534): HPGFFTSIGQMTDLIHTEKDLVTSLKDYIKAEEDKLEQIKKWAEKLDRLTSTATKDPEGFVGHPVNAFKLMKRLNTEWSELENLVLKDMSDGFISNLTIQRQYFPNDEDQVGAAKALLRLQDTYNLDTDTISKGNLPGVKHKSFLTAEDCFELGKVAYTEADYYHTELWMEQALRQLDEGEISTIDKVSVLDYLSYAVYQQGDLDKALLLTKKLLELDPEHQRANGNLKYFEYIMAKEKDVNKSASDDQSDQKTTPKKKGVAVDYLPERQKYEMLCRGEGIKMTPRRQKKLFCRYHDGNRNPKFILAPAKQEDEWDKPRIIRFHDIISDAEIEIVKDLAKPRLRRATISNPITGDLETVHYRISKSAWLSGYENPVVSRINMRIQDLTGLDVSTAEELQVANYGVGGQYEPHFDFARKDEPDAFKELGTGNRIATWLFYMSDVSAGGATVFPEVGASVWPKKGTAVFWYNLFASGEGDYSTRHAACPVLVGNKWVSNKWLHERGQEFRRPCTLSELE
Sequence of prolyl hydroxylase (P07237 18-508 partner): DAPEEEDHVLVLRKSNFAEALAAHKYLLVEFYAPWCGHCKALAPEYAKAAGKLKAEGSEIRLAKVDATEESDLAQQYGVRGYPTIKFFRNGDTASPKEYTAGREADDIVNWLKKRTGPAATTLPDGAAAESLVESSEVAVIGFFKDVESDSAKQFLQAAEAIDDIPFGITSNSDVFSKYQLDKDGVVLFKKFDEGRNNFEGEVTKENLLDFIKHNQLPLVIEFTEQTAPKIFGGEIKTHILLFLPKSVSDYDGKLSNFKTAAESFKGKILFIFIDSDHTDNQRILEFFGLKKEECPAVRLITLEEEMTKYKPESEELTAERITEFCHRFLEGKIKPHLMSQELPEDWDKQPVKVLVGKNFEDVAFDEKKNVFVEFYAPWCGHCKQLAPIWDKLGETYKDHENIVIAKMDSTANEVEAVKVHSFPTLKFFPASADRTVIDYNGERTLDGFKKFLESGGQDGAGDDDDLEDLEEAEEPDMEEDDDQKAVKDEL
Procedure: The inhibitory action can be determined in an enzyme assay analogous to the method of B. Peterkofsky and R. DiBlasio Anal. Biochem. 66, 279-286 (1975). This entails underhydroxylated collagen being enzymatically hydroxylated with prolyl hydroxylase in the presence of iron(II) ions, α-ketoglutarate and ascorbate.
The suicidal nature of the inhibition is established by preincubation of the enzyme in the presence of iron(II) ions, α-ketoglutarate and ascorbate with the inhibitors for various times, and then determination of the remaining activity of the enzyme in the presence of a peptide substrate. It is possible to use for determination of the activity both the method of Peterkofsky and DiBlasio described above and other methods such as described by K. I. Kivirikko and R. Myllyla, Meth. Enzym. 82, 245-304 (1982). The concentration which inactivates 50% of the enzyme after one hour is stated.

[3] = test system: C1q biosynthesis by macrophages; conditions: W. Muller et al., FEBS Lett. 90, 218f (1978); cited from earlier work

Row | IC50 [1] | Compound | ID50 [60 min; μmol/l] [2] | effect on C1q biosynthesis by macrophages [3]
1 | 550 µM | CC(C)(C)OC(=O)CNC(=O)C1CCON1C(=O)C1CCCN1C(=O)OCc1ccccc1 (centres unmarked) [Z--Pro--Opr--Gly--OtBu] |  | 
2 | 2500 µM | O=C(CNC(=O)C1CCON1C(=O)Cc1ccccc1)OCc1ccc([N+](=O)[O-])cc1 (centres unmarked) [4-Nitrobenzyl ester of N-phenylacetyl-Opr-Gly] | 540.0 µmol/L | 
3 |  | O=C(NC(Cc1ccccc1)C(=O)N1OCCC1C(=O)NCC(=O)c1ccccc1)OCc1ccccc1 (centres unmarked) [Z--Phe--Opr--NH--CH2 --CO--C6 H5, ZPheOprNHCH2 COC6 H5] | 2.4 µmol/L | 
4 |  | O=C(CNC(=O)C1CCON1C(=O)C(Cc1ccccc1)NC(=O)OCc1ccccc1)OCc1ccc(F)cc1 (centres unmarked) [Z--Phe--Opr--Gly--O--CH2 --C6 H4-4-F] | 0.8 µmol/L | 
5 |  | CN(CC(=O)OCc1ccccc1)C(=O)C1CCON1C(=O)C(Cc1ccccc1)NC(=O)OCc1ccccc1 (centres unmarked) [Z--Phe--Opr--Sar-- OBzl, Z--Phe--Opr--Sar--OBzl] | > 10000.0 µmol/L | 
6 |  | O=C(CNC(=O)C1CCON1C(=O)C(Cc1ccccc1)NC(=O)OCc1ccccc1)OCc1ccccc1 (stereo not drawn) [Z--Phe--Opr--Gly--OBzl, Z-Phe-Opr-Gly-OBzl] | 0.8 µmol/L | 
7 |  | CC(=O)N1CCCC1C(=O)N1OCCC1C(=O)NCC(=O)NCc1ccccc1 (centres unmarked) [Ac--Pro--Opr--Gly--NH--CH2 --C6 H5] | 6000.0 µmol/L | 
8 |  | CS(=O)(=O)CCOC(=O)NC(CCC(=O)OCc1ccccc1)C(=O)N1OCCC1C(=O)NCC(=O)OCc1ccccc1 (centres unmarked) [Msc--Glu(OBzl)--Opr--Gly--OBzl] | 30.0 µmol/L | 
9 | 380 µM | CC(C)C(NC(=O)OCc1ccccc1)C(=O)N1OCCC1C(=O)NCC(=O)OCc1ccccc1 (centres unmarked) [Z--Val--Opr--Gly--OBzl] | 40.0 µmol/L | 
10 | 2000 µM | O=C(CNC(=O)C1CCON1C(=O)Cc1ccccc1)OCc1ccccc1 (centres unmarked) [C6 H5 --CH2 --CO--Opr--Gly--OBzl] | 1000.0 µmol/L | 
11 |  | O=C(CNC(=O)C1CCON1C(=O)C(CCCCN1C(=O)c2ccccc2C1=O)NC(=O)OCc1ccccc1)OCc1ccccc1 (centres unmarked) [Z--Lys(Pht)--Opr--Gly--OBzl] | 11.0 µmol/L | 
12 |  | CC(NC(=O)OCc1ccccc1)C(=O)N1OCCC1C(=O)NCC(=O)OC(C)(C)C (centres unmarked) [Z--Ala--Opr--Gly--OtBu, Z--Ala--Opr--Gly--OtBU] | 40.0 µmol/L | 
13 |  | O=C(CNC(=O)C1CCON1C(=O)CCc1ccccc1)OCc1ccccc1 (centres unmarked) [C6 H5 --CH2 --CH2 --CO--Opr--Gly--OBzl, N-3-Phenylpropionyl-Opr--Gly--OBzl] | 2000.0 µmol/L | 
14 |  | c1ccc(-c2ccccn2)nc1 [α,α-dipyridyl] |  | inhibition of C1q biosynthesis by macrophages
15 |  | CC(NC(=O)OCc1ccccc1)C(=O)N1OCCC1C(=O)NCC(=O)O (centres unmarked) [Z--Ala--Opr--Gly--OH] | 330.0 µmol/L | 
16 |  | HPheOprNHCH2 COC6 H4 -4-Cl [H--Phe--Opr--NH--CH2 --CO--C6 H4-4-Cl] | 15.5 µmol/L | 
17 |  | O=C(CNC(=O)C1CCON1C(=O)C(Cc1ccccc1)NC(=O)OCc1ccccc1)OCCc1ccccc1 (centres unmarked) [Z--Phe--Opr--Gly--O--CH2 --CH2 --C6 H5] | 0.9 µmol/L | 
18 |  | CCN(CC)C(=O)CNC(=O)C1CCON1C(=O)C1CCCN1C(C)=O (centres unmarked) [Ac--Pro--Opr--Gly--N(C2 H5)2] | 16900.0 µmol/L | 
19 |  | CC(=O)N1CCCC1C(=O)N1OCCC1C(=O)NCC(=O)OCc1ccccc1 (centres unmarked) [Ac--Pro--Opr--Gly--OBzl] | 60.0 µmol/L | 
20 |  | CC(NC(=O)OCc1ccccc1)C(=O)N1OCCC1C(=O)NCC(=O)OCc1ccccc1 (centres unmarked) [Z--(D)--Ala--Opr--Gly--OBzl, Z--(D)-- Ala--Opr--Gly--OBzl] | > 10000.0 µmol/L | 
21 |  | O=C(O)CCC(NC(=O)OCc1ccccc1)C(=O)N1OCCC1C(=O)NCC(=O)OCc1ccccc1 (centres unmarked) [Z--Glu--Opr--Gly--OBzl] | 5000.0 µmol/L | 
22 | 1650 µM and 2500 µM | C[C@H](NC(=O)OCc1ccccc1)C(=O)N1OCCC1C(=O)NCC(=O)OCc1ccccc1 (some centres unmarked) [Z--Ala--Opr--Gly--OBzl] | 3.0 µmol/L | 
23 |  | N#Cc1ccc(C(=O)CNC(=O)C2CCON2C(=O)C(Cc2ccccc2)NC(=O)OCc2ccccc2)cc1 (centres unmarked) [Z--Phe--Opr--NH--CH2 --CO--C6 H4-4-CN, ZPheOprNHCH2 COC6 H4-4-CN] | 1.1 µmol/L | 
24 |  | CC(=O)N1CCCC1C(=O)N1OCCC1C(=O)NCC(=O)NCCc1ccccc1 (centres unmarked) [Ac--Pro--Opr--Gly--NH--CH2 --CH2 --C6 H5] | 4900.0 µmol/L | 
25 |  | O=C(CNC(=O)C1CCON1Cc1ccccc1)OCc1ccccc1 (stereo not drawn) [C6 H5 --CH2 --Opr--Gly--OBzl, C6 H5 --CH2 -Opr-Gly-OBzl] | 610.0 µmol/L | 
26 |  | Z-Phe(r)-Opr-Gly-OBzl [Z--Phe(r)--Opr--Gly--OBzl] | 1.1 µmol/L | 
27 | 7500 µM | CC(=O)N1CCCC1C(=O)N1OCCC1C(=O)NCC(=O)OC(C)(C)C (centres unmarked) [Ac--Pro--Opr--Gly--OtBu] | 8000.0 µmol/L | 
28 |  | O=C(CNC(=O)C1CCON1C(=O)C(Cc1ccc(O)cc1)NC(=O)OCc1ccccc1)OCc1ccccc1 (centres unmarked) [Z--Tyr--Opr--Gly--OBzl] | 2.4 µmol/L | 
29 |  | O=C(CCc1ccccc1)CNC(=O)C1CCON1C(=O)C(Cc1ccccc1)NC(=O)OCc1ccccc1 (stereo not drawn) [Z-Phe-Opr-NH--CH2 --CO--CH2 --CH2 --C6 H5] | 3.4 µmol/L | 
30 |  | O=C(CNC(=O)C1CCON1C(=O)C1Cc2ccccc2CN1C(=O)OCc1ccccc1)OCc1ccccc1 (centres unmarked) [Z--Tic--Opr--Gly--OBzl] | 1.5 µmol/L | 
